Reference: paper PMC11366232, “Metabolites profiling of Sapota fruit pulp via a multiplex approach of gas and ultra performance liquid chromatography/mass spectroscopy in relation to its lipase inhibition effect” (PeerJ, 2024)

Experiments:
yeast α-glucosidase = system: T1, yeast α-glucosidase; experiment: p-nitrophenyl alpha-D-glucopyranoside hydrolysis, absorbance at […] nm; assay type: biochemical; conditions: unreliable (a separate IC50 is printed for each sample concentration; this row is the 5 mg/mL one); 5 mM pNPG; 100 mM phosphate pH 6.8; 37 °C; 20 min; enzyme source contradictory (yeast or intestinal)
T1 construct: gene MAL12; commercial native enzyme, Sigma-Aldrich; assay text says yeast, reagent list says intestinal

[1] = target: T2, porcine pancreatic lipase (PL) enzyme type II (Sus scrofa, UniProt P00591); experiment: p-nitrophenyl butyrate hydrolysis, absorbance at […] nm; assay type: biochemical; conditions: unreliable (a separate IC50 is printed for each sample concentration; this row is the 5 mg/mL one); crude enzyme; pNPB 10 mM stock in acetonitrile; Tris-HCl pH 7.4; 37 °C; 5 min preincubation
T2 construct: gene PNLIP
T2 sequence (P00591 1-450): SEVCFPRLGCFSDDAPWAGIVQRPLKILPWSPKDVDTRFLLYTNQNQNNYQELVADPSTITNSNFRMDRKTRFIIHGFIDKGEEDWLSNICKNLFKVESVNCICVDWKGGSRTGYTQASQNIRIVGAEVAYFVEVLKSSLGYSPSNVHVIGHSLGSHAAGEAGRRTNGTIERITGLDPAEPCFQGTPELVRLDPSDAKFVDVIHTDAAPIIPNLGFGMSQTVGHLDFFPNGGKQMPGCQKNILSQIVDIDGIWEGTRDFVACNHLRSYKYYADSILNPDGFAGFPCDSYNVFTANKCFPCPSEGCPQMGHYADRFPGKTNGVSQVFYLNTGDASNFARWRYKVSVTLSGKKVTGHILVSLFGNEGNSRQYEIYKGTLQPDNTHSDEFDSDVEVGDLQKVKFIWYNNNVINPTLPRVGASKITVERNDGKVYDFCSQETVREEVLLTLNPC

α-Glucosidase inhibitory Assay / Acarbose (yeast α-glucosidase) [mg/mL]	Pancreatic Lipase (PL) Inhibition Assay / Orlistat [1] [mg/mL]	Compound
0.16	–	C[C@H]1O[C@H](O[C@H]2[C@H](O)[C@@H](O)[C@@H](O[C@H]3[C@H](O)[C@@H](O)C(O)O[C@@H]3CO)O[C@@H]2CO)[C@H](O)[C@@H](O)[C@@H]1N[C@H]1C=C(CO)[C@@H](O)[C@H](O)[C@H]1O (some centres unmarked) [Acarbose]
–	0.08	CCCCCCCCCCC[C@@H](C[C@@H]1OC(=O)[C@H]1CCCCCC)OC(=O)[C@H](CC(C)C)NC=O [Orlistat]
